Patent publication US20230135317A1, “COSMETIC FORMULATION FOR TOPICAL ADMINISTRATION COMPRISING NOVEL PEPTIDES THAT IMPROVE APPEARANCE AND REGENERATION OF SKIN” (ASC REGENITY LTD., priority 2020, published 2023)
No end group written: not given here.

B1: Juvista: TGF beta 3 drug (protein, UniProt P10600 301-412, looked up)
Transforming growth factor …: ALDTNYCFRNLEENCCVRPLYIDFRQDLGWKWVHEPKGYYANFCSGPCPYLRSADTTHSTVLGLYNTLNPEASASPCCVPQDLEPLTILYYVGRTPKVEQLSNMVVKSCKCS
modifications: Transforming growth factor beta-3
notes: TGF beta 3 drug

Key:
facial skin = experiment: Nine-month long-term study 2 (stem cell homeostasis module peptides); assay type: in vivo, human; conditions: nine months; peptide tested with the other modules of TFC8-D; carrier in SEQ ID NO: 3 and 4 is PEG 35 kDa; sequence difference p-value <5%
[1] = clinical phase III (Gunter & MacHens, 2012); cited from earlier work

Molecule	frequency of reported product performance decline (comparison) (facial skin)	clinical outcome [1]
Z1-LNPSECPKTVLGASTSTLDASYSTAEAENHVRL (not fully specified (N-terminus); printed as Z1-LNPSECPKTVLGASTSTLDASYSTAEAENHVRL) [SEQ ID NO: 4, Z1 carrier at N-terminus; as tested a polyethyleneglycol with a molecular weight of 35 kDa]	lower for SEQ ID NO: 4 than for SEQ ID NO: 2	–
(Z1)-LNPSECPKTVLGAEYGKTLDASYSTAEAENHVRL (not fully specified (N-terminus); printed as (Z1)-LNPSECPKTVLGAEYGKTLDASYSTAEAENHVRL) [SEQ ID NO: 3, Z1 carrier at N-terminus; as tested a polyethyleneglycol with a molecular weight of 35 kDa]	lower for SEQ ID NO: 3 than for SEQ ID NO: 1	–
LNPSECPKTVLGASTSTLDASYSTAEAENHVRL (peptide that stimulates the Wnt beta-catenin signaling pathway) [SEQ ID NO: 2, peptide that stimulates Wnt/β-catenin signalling]	more strongly associated with a decline in product performance during the study period than the sequence of SEQ ID NO: 1	–
B1	–	failure of a clinical phase III study
